What was measured:
[1] = molecular target: TYK2 (Homo sapiens (Human), UniProt P29597); experiment: Tyk2 activity inhibition assay (radioactive kinase / Caliper assay); format: biochemical
Experimental: (§1) Peptide substrate, [KKSRGDYMTMQIG], (20 μM) is prepared in reaction buffer (20 mM Hepes pH 7.5, 10 mM MgCl2, 1 mM EGTA, 0.02% Brij35, 0.02 mg/mL BSA, 0.1 mM […], 2 mM DTT, 1% DMSO. TYK2 (Invitrogen) kinase is added, followed by compounds in DMSO. 33PATP is added to initiate the reaction in ATP at 10 μM. Kinase reaction is incubated for 120 min at room temp and reactions are spotted onto P81 ion exchange paper (Whatman #3698-915), and then washed extensively in 0.75% phosphoric acid, prior to reading the radioactivity counts. For JAK2 (Invitrogen) kinase assay the peptide substrate poly[Glu:Tyr] (4:1), 0.2 mg/ml is used, in the reaction carried out the same as for TYK2.
(§2) The caliper machine employs an off chip mobility shift assay to detect phosphorylated peptide substrates from kinase assays, using microfluidics technology. The assays are carried out at ATP concentration equivalent to the ATP Km, and at 1 mM ATP. Compounds are serially diluted in DMSO then further diluted in assay buffer (25 mM HEPES, pH 7.5, 0.01% Brij-35, 0.01% Triton, 0.5 mM EGTA). 5 ul of diluted compound was added into wells first, then 10 ul of enzyme mix was added into wells, followed by 10 uL of substrate mix (peptide and ATP in 10 mM MgCl2) to start reaction. Reaction was incubated at 28° C. for 25 min and then added 25 ul stop buffer (100 mM HEPES, 0.015% Brij-35, 50 mM EDTA), followed by reading with Caliper. JAK2 at 1 nM final concentration and TYK2 at 9.75 nM are from Carna, and substrates used are ATP at 20 and 16 uM, respectively. JAK2 assay uses peptide 22 and TYK2 uses peptide 30 (Caliper), each at 3 uM.
(§3) The compound numbers correspond to the compound numbers in Table 1. Compounds having an activity designated as “A” provided an Ki≤0.01 μM; compounds having an activity designated as “B” provided an Ki of 0.01-0.1 μM; compounds having an activity designated as “C” provided an Ki of 0.1-1.0 μM; and compounds having an activity designated as “D” provided an Ki≥1.0 μM.

[2] = molecular target: JAK2 (Homo sapiens (Human), UniProt O60674); experiment: JAK2 activity inhibition assay (radioactive kinase / Caliper assay); format: biochemical
JAK2, sequence (O60674 whole entry): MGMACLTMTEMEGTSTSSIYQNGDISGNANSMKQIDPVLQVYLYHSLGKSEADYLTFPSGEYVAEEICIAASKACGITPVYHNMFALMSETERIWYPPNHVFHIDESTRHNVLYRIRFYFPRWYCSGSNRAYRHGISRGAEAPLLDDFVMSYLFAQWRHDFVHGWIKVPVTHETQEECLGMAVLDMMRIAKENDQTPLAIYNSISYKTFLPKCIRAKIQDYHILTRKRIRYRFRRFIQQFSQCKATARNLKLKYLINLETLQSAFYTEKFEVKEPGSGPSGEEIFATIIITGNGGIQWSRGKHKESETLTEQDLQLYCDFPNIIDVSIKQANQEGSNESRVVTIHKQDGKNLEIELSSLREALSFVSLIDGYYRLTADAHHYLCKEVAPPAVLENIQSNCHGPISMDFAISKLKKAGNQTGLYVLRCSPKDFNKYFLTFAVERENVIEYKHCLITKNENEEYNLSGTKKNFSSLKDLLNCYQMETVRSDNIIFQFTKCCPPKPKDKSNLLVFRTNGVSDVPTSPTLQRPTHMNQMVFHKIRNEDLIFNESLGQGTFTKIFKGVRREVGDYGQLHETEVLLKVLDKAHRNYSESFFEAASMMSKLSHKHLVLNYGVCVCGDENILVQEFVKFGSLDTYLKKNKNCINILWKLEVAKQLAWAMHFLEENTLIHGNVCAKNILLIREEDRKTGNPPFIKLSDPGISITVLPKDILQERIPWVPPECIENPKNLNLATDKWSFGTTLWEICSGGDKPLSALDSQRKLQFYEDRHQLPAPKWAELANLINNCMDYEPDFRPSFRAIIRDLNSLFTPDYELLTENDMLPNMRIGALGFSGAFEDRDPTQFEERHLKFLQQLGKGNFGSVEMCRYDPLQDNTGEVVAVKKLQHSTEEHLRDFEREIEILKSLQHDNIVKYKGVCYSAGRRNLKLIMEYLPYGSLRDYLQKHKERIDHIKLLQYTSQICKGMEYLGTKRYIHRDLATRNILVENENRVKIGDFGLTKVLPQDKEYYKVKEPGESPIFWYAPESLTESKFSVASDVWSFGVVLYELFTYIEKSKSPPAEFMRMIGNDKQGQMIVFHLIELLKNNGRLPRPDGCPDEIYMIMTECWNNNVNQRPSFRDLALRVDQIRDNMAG
Experimental: as §1, §2, §3

TYK2, sequence (P29597 whole entry): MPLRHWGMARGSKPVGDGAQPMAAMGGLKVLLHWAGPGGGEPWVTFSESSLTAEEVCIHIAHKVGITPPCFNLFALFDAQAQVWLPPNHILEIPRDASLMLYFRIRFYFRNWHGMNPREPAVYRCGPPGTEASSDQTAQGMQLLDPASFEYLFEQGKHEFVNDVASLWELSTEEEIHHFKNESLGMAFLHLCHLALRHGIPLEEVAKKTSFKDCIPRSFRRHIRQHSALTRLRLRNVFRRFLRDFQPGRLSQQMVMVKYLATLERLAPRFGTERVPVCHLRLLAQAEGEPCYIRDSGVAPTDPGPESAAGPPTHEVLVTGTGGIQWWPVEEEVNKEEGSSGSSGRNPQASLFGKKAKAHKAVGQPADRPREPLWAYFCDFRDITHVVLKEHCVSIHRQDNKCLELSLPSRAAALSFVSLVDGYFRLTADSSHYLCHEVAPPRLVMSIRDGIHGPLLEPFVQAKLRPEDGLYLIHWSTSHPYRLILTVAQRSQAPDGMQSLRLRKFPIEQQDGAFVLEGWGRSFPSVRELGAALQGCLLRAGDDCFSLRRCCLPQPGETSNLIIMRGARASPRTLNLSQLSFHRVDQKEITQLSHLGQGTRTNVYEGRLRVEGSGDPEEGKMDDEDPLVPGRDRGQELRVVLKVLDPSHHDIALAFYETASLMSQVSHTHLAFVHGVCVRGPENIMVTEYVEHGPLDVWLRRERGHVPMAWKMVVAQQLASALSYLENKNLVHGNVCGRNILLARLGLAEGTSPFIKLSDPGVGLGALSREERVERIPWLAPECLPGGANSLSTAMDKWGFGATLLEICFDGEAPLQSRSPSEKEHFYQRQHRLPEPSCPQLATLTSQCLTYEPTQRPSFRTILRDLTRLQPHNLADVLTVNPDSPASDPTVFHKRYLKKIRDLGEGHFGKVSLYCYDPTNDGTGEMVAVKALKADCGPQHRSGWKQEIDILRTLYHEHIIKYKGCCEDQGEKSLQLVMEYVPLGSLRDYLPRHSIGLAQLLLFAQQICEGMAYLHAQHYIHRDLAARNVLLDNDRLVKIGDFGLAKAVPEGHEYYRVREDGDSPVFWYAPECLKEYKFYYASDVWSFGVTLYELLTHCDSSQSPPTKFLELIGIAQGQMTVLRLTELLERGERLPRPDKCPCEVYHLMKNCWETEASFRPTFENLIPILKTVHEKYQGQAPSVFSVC

SMILES	Ki [1] [nM]	Ki [2] [nM]
N#Cc1cccc(F)c1-c1cc(Nc2ccc(N3C[C@H]4COC[C@H]4C3)cn2)c2c(n1)CNC2=O [Compound I-76, 3-fluoro-2-(5-oxo-4-((5-((3aR,6aS)-tetrahydro-1H-furo[3,4-c]pyrrol-5(3H)-yl)pyridin-2-yl)amino)-6,7-dihydro-5H-pyrrolo[3,4-b]pyridin-2-yl)benzonitrile]	≤ 10	10 to 100
CCNC(=O)[C@](C)(O)c1ccc(Nc2nc(-c3c(F)cccc3F)nc3c2C(=O)NC3)cc1 [Compound I-16, (R)-2-(4-((2-(2,6-difluorophenyl)-5-oxo-6,7-dihydro-5H-pyrrolo[3,4-d]pyrimidin-4-yl)amino)phenyl)-N-ethyl-2-hydroxypropanamide]	≤ 10	100 to 1000
CC(N)(C(=O)O)c1ccc(Nc2nc(-c3c(F)cccc3F)nc3c2C(=O)NC3)cc1 (stereo not drawn) [Compound I-32, 2-amino-2-(4-((2-(2,6-difluorophenyl)-5-oxo-6,7-dihydro-5H-pyrrolo[3,4-d]pyrimidin-4-yl)amino)phenyl)propanoic acid]	≤ 10	≥ 1000
O=C1NCc2nc(-n3c(F)cccc3=O)cc(Nc3ccc(N4CCOCC4)cn3)c21 [Compound I-56, 2-(6-fluoro-2-oxopyridin-1(2H)-yl)-4-((5-morpholinopyridin-2-yl)amino)-6,7-dihydro-5H-pyrrolo[3,4-b]pyridin-5-one]	10 to 100	100 to 1000
CN1C(=O)[C@](C)(c2ccc(Nc3nc(-c4c(F)cccc4F)nc4c3C(=O)NC4)cc2)Oc2ccccc21 [Compound I-40, (S)-2-(4-((2-(2,6-difluorophenyl)-5-oxo-6,7-dihydro-5H-pyrrolo[3,4-d]pyrimidin-4-yl)amino)phenyl)-2,4-dimethyl-2H-benzo[b][1,4]oxazin-3(4H)-one]	100 to 1000	–
C[C@](N)(C(=O)O)c1ccc(Nc2nc(-c3c(F)cccc3F)nc3c2C(=O)NC3)cc1 [Compound I-46, (R)-2-amino-2-(4-((2-(2,6-difluorophenyl)-5-oxo-6,7-dihydro-5H-pyrrolo[3,4-d]pyrimidin-4-yl)amino)phenyl)propanoic acid hydro-chloride]	10 to 100	100 to 1000
COc1ccc(CNc2nc(-c3c(F)cccc3F)nc3c2C(=O)NC3)cc1 [Compound I-13, 2-(2,6-difluorophenyl)-4-((4-methoxybenzyl)-amino)-6,7-dihydro-5H-pyrrolo[3,4-d]pyrimidin-5-one]	10 to 100	100 to 1000
CC(O)(C(=O)O)c1ccc(Nc2nc(-c3c(F)cccc3F)nc3c2C(=O)NC3)cc1 (stereo not drawn) [Compound I-6, 2-(4-((2-(2,6-difluorophenyl)-5-oxo-6,7-dihydro-5H-pyrrolo-[3,4-d]pyrimidin-4-yl)amino)phenyl)-2-hydroxypropanoic acid]	≤ 10	100 to 1000
N#Cc1cccc(F)c1-c1cc(Nc2ccc(N3CC[C@@]4(C[C@@H](O)CO4)C3)cn2)c2c(n1)CNC2=O [Compound I-90]	≤ 10	≤ 10
O=C1NCc2nc(-c3c(F)cccc3F)nc(Nc3ccc([C@@H](O)C(F)(F)F)cc3)c21 [Compound I-31, (R)-2-(2,6-difluorophenyl)-4-((4-(2,2,2-trifluoro-1-hydro-xyethyl)phenyl)amino)-6,7-dihydro-5H-pyrrolo[3,4-d]pyrimidin-5-one]	–	10 to 100
C[C@@](O)(c1ccc(Nc2nc(-c3c(F)cccc3F)nc3c2C(=O)NC3)cc1)C(F)(F)F [Compound I-35, (R)-2-(2,6-difluorophenyl)-4-((4-(1,1,1-trifluoro-2-hydroxy-propan-2-yl)phenyl)amino)-6,7-dihydro-5H-pyrrolo[3,4-d]pyrimidin-5-one]	–	100 to 1000
O=C1NCc2nc(-c3c(F)cccc3F)nc(Nc3ccc([C@H](O)C(F)(F)F)cc3)c21 [Compound I-30, (S)-2-(2,6-difluorophenyl)-4-((4-(2,2,2-trifluoro-1-hydroxyethyl)phenyl)amino)-6,7-dihydro-5H-pyrrolo[3,4-d]pyrimidin-5-one]	–	100 to 1000
CCNC(=O)[C@](O)(CC(F)(F)F)c1ccc(Nc2nc(-c3c(F)cccc3F)nc3c2C(=O)NC3)cc1 [Compound I-27, (S)-2-(4-((2-(2,6-difluorophenyl)-5-oxo-6,7-dihydro-5H-pyrrolo[3,4-d]pyrimidin-4-yl)amino)phenyl)-N-ethyl-4,4,4-trifluoro-2-hydroxybutanamide]	–	10 to 100
CCNC(=O)[C@@](O)(CC(F)(F)F)c1ccc(Nc2nc(-c3c(F)cccc3F)nc3c2C(=O)NC3)cc1 [Compound I-28, (R)-2-(4-((2-(2,6-difluorophenyl)-5-oxo-6,7-dihydro-5H-pyrrolo[3,4-d]pyrimidin-4-yl)amino)phenyl)-N-ethyl-4,4,4-trifluoro-2-hydroxybutanamide]	–	100 to 1000

Further lines, results first:

Ki [1] [nM]	Ki [2] [nM]	SMILES
≤ 10	100 to 1000	CC1(C)COc2cc(Nc3nc(-c4c(F)cccc4F)nc4c3C(=O)NC4)ccc21 [Compound I-23, 2-(2,6-difluorophenyl)-4-((3,3-dimethyl-2,3-dihydrobenzofuran-6-yl)amino)-6,7-dihydro-5H-pyrrolo[3,4-d]pyrimidin-5-one]
–	100 to 1000	C[C@@](O)(c1ccc(Nc2cc(-c3c(F)cccc3F)nc3c2C(=O)NC3)cc1)C(F)(F)F [Compound I-44, (R)-2-(2,6-difluorophenyl)-4-((4-(1,1,1-trifluoro-2-hydroxy-nronan-2-yl)phenyl)amino)-6,7-dihydro-5H-pyrrolo[3,4-b]pyridin-5-one]
≤ 10	10 to 100	O=C1NCc2nc(-c3c(F)cccc3F)cc(Nc3ccc(C(=O)N4CCC5(CCCCO5)CC4)cc3)c21 [Compound I-54, 4-((4-(1-oxa-9-azaspiro[5.5]undecane-9-carbonyl)phenyl)amino)-2-(2,6-difluorophenyl)-6,7-dihydro-5H-pyrrolo[3,4-b]pyridin-5-one]
≥ 1000	≥ 1000	CC1(C)COc2nc(Nc3cc(-c4c(F)cccc4C#N)nc4c3C(=O)NC4)ccc21 [Compound I-85, 2-(4-((3,3-dimethyl-2,3-dihydrofuro[2,3-b]pyridin-6-yl)amino)-5-oxo-6,7-dihydro-5H-pyrrolo[3,4-b]pyridin-2-yl)-3-fluorobenzonitrile]
≤ 10	10 to 100	O=C1NCc2nc(-c3c(F)cccc3F)cc(Nc3ccc(C(=O)N4CCOC5(CC5)C4)cc3)c21 [Compound I-50, 4-((4-(4-oxa-7-azaspiro[2.5]octane-7-carbonyl)phenyl)amino)-2-(2,6-difluorophenyl)-6,7-dihydro-5H-pyrrolo[3,4-b]pyridin-5-one]
10 to 100	≥ 1000	O=C1NCc2nc(-c3c(F)cccc3F)cc(Nc3ccc4c(c3)COB4O)c21 [Compound I-61, 2-(2,6-difluorophenyl)-4-((1-hydroxy-1,3-dihydro-benzo-[c][1,2]oxaborol-5-yl)amino)-6,7-dihydro-5H-pyrrolo[3,4-b]pyridin-5-one]
≤ 10	≤ 10	CCNC(=O)C(C)(C)c1ccc(Nc2cc(-c3c(F)cccc3C#N)nc3c2C(=O)NC3)cc1 [Compound I-81, 2-(4-((2-(2-cyano-6-fluorophenyl)-5-oxo-6,7-dihydro-5H-pyrrolo[3,4-b]pyridin-4-yl)amino)phenyl)-N-ethyl-2-methylpropanamide]
≤ 10	10 to 100	O=C1NCc2nc(-c3c(F)cccc3F)cc(Nc3ccc(C(O)(C(F)(F)F)C(F)(F)F)cc3)c21 [Compound I-66, 2-(2,6-difluorophenyl)-4-((4-(1,1,1,3,3,3-hexafluoro-2-hydroxy-propan-2-yl)phenyl)amino)-6,7-dihydro-5H-pyrrolo[3,4-b]pyridin-5-one]
≤ 10	10 to 100	CN1CCc2cc(Nc3cc(-c4c(F)cccc4F)nc4c3C(=O)NC4)ccc2C1=O [Compound I-64, 6-((2-(2,6-difluorophenyl)-5-oxo-6,7-dihydro-5H-pyrrolo[3,4-b]pyridin-4-yl)amino)-2-methyl-3,4-dihydroisoquinolin-1 (2H)-one]
10 to 100	≥ 1000	O=C1NCc2nc(-c3c(F)cccc3F)cc(Nc3ccc(N4C[C@H]5COC[C@H]5C4)nc3)c21 [Compound I-73, 2-(2,6-difluorophenyl)-4-((6-((3aR,6aS)-tetrahydro-1H-furo[3,4-c]pyrrol-5(3H)-yl)pyridin-3-yl)amino)-6,7-dihydro-5H-pyrrolo[3,4-b]pyridin-5-one]
–	10 to 100	C[C@](O)(c1ccc(Nc2cc(-c3c(F)cccc3F)nc3c2C(=O)NC3)cc1)C(F)(F)F [Compound I-43, (S)-2-(2,6-difluorophenyl)-4-((4-(1,1,1-trifluoro-2-hydroxypropan-2-yl)phenyl)amino)-6,7-dihydro-5H-pyrrolo[3,4-b]pyridin-5-one]
